Starred links: 1 amine or outer side, 2 acyl side, 3 side chain; linkers in the order of their positions; H or OH if unused. Non-standard residues stand in square brackets, D forms with d. Residues, ends and D or L forms follow the SMILES beside them. Groups on a side chain read outwards from the residue. *: point of attachment. C20 diacid = O=C(O)CCCCCCCCCCCCCCCCCCC(=O)*; C18 diacid = O=C(O)CCCCCCCCCCCCCCCCC(=O)*; C17 diacid = O=C(O)CCCCCCCCCCCCCCCC(=O)*; γGlu = O=C(O)[C@H](CCC(=O)[*:2])N[*:1]; NMeY = CN[C@@H](Cc1ccc(O)cc1)C(=O)O; AEEA = NCCOCCOCC(=O)O; Aib = CC(C)(N)C(=O)O

A short description of the series: physchem. In short, it runs like this:
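Solubility at pH 7.4 determined by stepwise addition of 200 mM phosphate buffer in 100 μL increments to 3 mg peptide, mixing briefly each time, until no insoluble material remained, then measured by liquid chromatography.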

As for `CC[C@H](C)[C@H](NC(=O)[C@H](Cc1ccccc1)NC(=O)[C@@H](NC(=O)CNC(=O)[C@H](CCC(=O)O)NC(=O)C(C)(C)NC(=O)[C@H](Cc1ccc(O)cc1)NC)[C@@H](C)O)C(=O)N[C@@H](CO)C(=O)N[C@@H](CC(=O)O)C(=O)N[C@@H](Cc1ccc(O)cc1)C(=O)N[C@@H](CO)C(=O)N[C@H](C(=O)NC(C)(C)C(=O)N[C@@H](CC(C)C)C(=O)N[C@@H](CC(=O)O)C(=O)N[C@@H](CCCNC(=N)N)C(=O)NC(C)(C)C(=O)N[C@@H](CCCCNC(=O)COCCOCCNC(=O)COCCOCCNC(=O)CC[C@H](NC(=O)CC[C@H](NC(=O)CCCCCCCCCCCCCCCCC(=O)O)C(=O)O)C(=O)O)C(=O)N[C@@H](CCC(N)=O)C(=O)NC(C)(C)C(=O)N[C@@H](CC(=O)O)C(=O)N[C@@H](Cc1ccccc1)C(=O)N[C@H](C(=O)N[C@@H](CC(N)=O)C(=O)N[C@@H](Cc1c[nH]c2ccccc12)C(=O)N[C@@H](CC(C)C)C(=O)N[C@@H](CC(C)C)C(=O)N[C@@H](C)C(=O)N[C@@H](CCC(N)=O)C(=O)N[C@@H](CO)C(=O)N1CCC[C@H]1C(=O)NCC(=O)O)C(C)C)[C@@H](C)CC` [Compound 87] (H-[NMeY][Aib]EGTFISDYSI[Aib]LDR[Aib]K([AEEA-AEEA-γGlu-γGlu-C18 diacid])Q[Aib]DFVNWLLAQSPG-OH), the solubility runs as follows: (pH 7.4) no less than 15 mg/mL; (pH 7.4, aqueous buffer) no less than 30 mg/mL. The corresponding values for `CC[C@H](C)[C@H](NC(=O)[C@H](Cc1ccccc1)NC(=O)[C@@H](NC(=O)CNC(=O)[C@H](CCC(=O)O)NC(=O)C(C)(C)NC(=O)[C@H](Cc1ccc(O)cc1)NC)[C@@H](C)O)C(=O)N[C@@H](CO)C(=O)N[C@@H](CC(=O)O)C(=O)N[C@@H](Cc1ccc(O)cc1)C(=O)N[C@@H](CO)C(=O)N[C@H](C(=O)NC(C)(C)C(=O)N[C@@H](CC(C)C)C(=O)N[C@@H](CC(=O)O)C(=O)N[C@@H](CCCNC(=N)N)C(=O)NC(C)(C)C(=O)N[C@@H](C)C(=O)N[C@@H](CCC(N)=O)C(=O)NC(C)(C)C(=O)N[C@@H](CCCCNC(=O)COCCOCCNC(=O)COCCOCCNC(=O)CC[C@H](NC(=O)CC[C@H](NC(=O)CCCCCCCCCCCCCCCCCCC(=O)O)C(=O)O)C(=O)O)C(=O)N[C@@H](Cc1ccccc1)C(=O)N[C@H](C(=O)N[C@@H](CC(N)=O)C(=O)N[C@@H](Cc1c[nH]c2ccccc12)C(=O)N[C@@H](CC(C)C)C(=O)N[C@@H](CC(C)C)C(=O)N[C@@H](C)C(=O)N[C@@H](CCC(N)=O)C(=O)N[C@@H](CCCNC(=N)N)C(=O)NCC(=O)O)C(C)C)[C@@H](C)CC` [Compound 159] (H-[NMeY][Aib]EGTFISDYSI[Aib]LDR[Aib]AQ[Aib]K([AEEA-AEEA-γGlu-γGlu-C20 diacid])FVNWLLAQRG-OH) are no less than 15 mg/mL and no less than 30 mg/mL.

Under “pH 7.4, aqueous buffer”, `CC[C@H](C)[C@H](NC(=O)[C@H](Cc1ccccc1)NC(=O)[C@@H](NC(=O)CNC(=O)[C@H](CCC(=O)O)NC(=O)C(C)(C)NC(=O)[C@H](Cc1ccc(O)cc1)NC)[C@@H](C)O)C(=O)N[C@@H](CO)C(=O)N[C@@H](CC(=O)O)C(=O)N[C@@H](Cc1ccc(O)cc1)C(=O)N[C@@H](CO)C(=O)N[C@H](C(=O)NC(C)(C)C(=O)N[C@@H](CCCCNC(=O)CNC(=O)CNC(=O)CNC(=O)CNC(=O)CNC(=O)CC[C@H](NC(=O)CCCCCCCCCCCCCCCC(=O)O)C(=O)O)C(=O)N[C@@H](CC(=O)O)C(=O)N[C@@H](CCCNC(=N)N)C(=O)NC(C)(C)C(=O)N[C@@H](C)C(=O)N[C@@H](CCC(N)=O)C(=O)NC(C)(C)C(=O)N[C@@H](CC(=O)O)C(=O)N[C@@H](Cc1ccccc1)C(=O)N[C@H](C(=O)N[C@@H](CC(N)=O)C(=O)N[C@@H](Cc1c[nH]c2ccccc12)C(=O)N[C@@H](CC(C)C)C(=O)N[C@@H](CC(C)C)C(=O)N[C@@H](C)C(=O)N[C@@H](CCC(N)=O)C(=O)N[C@@H](CCCNC(=N)N)C(N)=O)C(C)C)[C@@H](C)CC` [Compound 265] showed a solubility of no less than 7.5 mg/mL. Consider `CC[C@H](C)[C@H](NC(=O)[C@H](CCCNC(=N)N)NC(=O)[C@H](CC(=O)O)NC(=O)[C@H](CCCCNC(=O)CNC(=O)CNC(=O)CNC(=O)CNC(=O)CNC(=O)CCCCCCCCCCCCCCCCC(=O)O)NC(=O)[C@H](C)NC(=O)[C@@H](NC(=O)[C@H](CO)NC(=O)[C@H](Cc1ccc(O)cc1)NC(=O)[C@H](CC(=O)O)NC(=O)[C@H](CO)NC(=O)[C@@H](NC(=O)[C@H](Cc1ccccc1)NC(=O)[C@@H](NC(=O)CNC(=O)[C@H](CCC(=O)O)NC(=O)C(C)(C)NC(=O)[C@H](Cc1ccc(O)cc1)NC)[C@@H](C)O)[C@@H](C)CC)[C@@H](C)CC)C(=O)N[C@@H](C)C(=O)N[C@@H](CCC(N)=O)C(=O)N[C@@H](CCC(N)=O)C(=O)N[C@@H](CC(N)=O)C(=O)N[C@@H](Cc1ccccc1)C(=O)N[C@H](C(=O)N[C@@H](CC(N)=O)C(=O)N[C@@H](Cc1c[nH]c2ccccc12)C(=O)N[C@@H](CC(C)C)C(=O)N[C@@H](CC(C)C)C(=O)N[C@@H](C)C(=O)N[C@@H](CCC(N)=O)C(=O)N[C@@H](CO)C(=O)N1CCC[C@H]1C(=O)N[C@@H](CO)C(=O)N[C@@H](CO)C(=O)NCC(=O)N[C@@H](C)C(=O)N1CCC[C@H]1C(=O)N1CCC[C@H]1C(=O)N1CCC[C@H]1C(=O)N[C@@H](CO)C(=O)O)C(C)C` [Compound 292], for which the solubility (pH 7.4, aqueous buffer, pH 7.4 Phosphate Buffer - Solubility, 200 mM Phosphate buffer pH 7.4) was less than 6 mg/mL.

For the compound `CC[C@H](C)[C@H](NC(=O)[C@H](CO)NC(=O)[C@H](Cc1ccc(O)cc1)NC(=O)[C@H](CC(=O)O)NC(=O)[C@H](CO)NC(=O)[C@@H](NC(=O)[C@H](Cc1ccccc1)NC(=O)[C@@H](NC(=O)CNC(=O)[C@H](CCC(=O)O)NC(=O)C(C)(C)NC(=O)[C@H](Cc1ccc(O)cc1)NC)[C@@H](C)O)[C@@H](C)CC)C(=O)N[C@@H](C)C(=O)N[C@@H](CC(C)C)C(=O)N[C@@H](CC(=O)O)C(=O)N[C@@H](CCCNC(=N)N)C(=O)NC(C)(C)C(=O)N[C@@H](C)C(=O)N[C@@H](CCC(N)=O)C(=O)NC(C)(C)C(=O)N[C@@H](CCCCNC(=O)COCCOCCNC(=O)COCCOCCNC(=O)CC[C@H](NC(=O)CC[C@H](NC(=O)CCCCCCCCCCCCCCCC(=O)O)C(=O)O)C(=O)O)C(=O)N[C@@H](Cc1ccccc1)C(=O)N[C@H](C(=O)N[C@@H](CC(N)=O)C(=O)N[C@@H](Cc1c[nH]c2ccccc12)C(=O)N[C@@H](CC(C)C)C(=O)N[C@@H](CC(C)C)C(=O)N[C@@H](C)C(=O)N[C@@H](CCC(N)=O)C(=O)N[C@@H](CCCNC(=N)N)C(=O)O)C(C)C` [Compound 9] (H-[NMeY][Aib]EGTFISDYSIALDR[Aib]AQ[Aib]K([AEEA-AEEA-γGlu-γGlu-C17 diacid])FVNWLLAQR-OH), the solubility is no less than 15 mg/mL (pH 7.4) and no less than 30 mg/mL (pH 7.4, aqueous buffer). The compound `CC[C@H](C)[C@H](NC(=O)[C@H](CO)NC(=O)[C@H](Cc1ccc(O)cc1)NC(=O)[C@H](CC(=O)O)NC(=O)[C@H](CO)NC(=O)[C@@H](NC(=O)[C@H](Cc1ccccc1)NC(=O)[C@@H](NC(=O)CNC(=O)[C@H](CCC(=O)O)NC(=O)C(C)(C)NC(=O)[C@H](Cc1ccc(O)cc1)NC)[C@@H](C)O)[C@@H](C)CC)C(=O)N[C@@H](C)C(=O)N[C@@H](CCCCNC(=O)COCCOCCNC(=O)COCCOCCNC(=O)CC[C@H](NC(=O)CCCCCCCCCCCCCCCC(=O)O)C(=O)O)C(=O)N[C@@H](CC(=O)O)C(=O)N[C@@H](CCCNC(=N)N)C(=O)NC(C)(C)C(=O)N[C@@H](C)C(=O)N[C@@H](CCC(N)=O)C(=O)NC(C)(C)C(=O)N[C@@H](CC(N)=O)C(=O)N[C@@H](Cc1ccccc1)C(=O)N[C@H](C(=O)N[C@@H](CC(N)=O)C(=O)N[C@@H](Cc1c[nH]c2ccccc12)C(=O)N[C@@H](CC(C)C)C(=O)N[C@@H](CC(C)C)C(=O)N[C@@H](C)C(=O)N[C@@H](CCC(N)=O)C(=O)N[C@@H](CO)C(=O)O)C(C)C` [Compound 10] (H-[NMeY][Aib]EGTFISDYSIAK([AEEA-AEEA-γGlu-C17 diacid])DR[Aib]AQ[Aib]NFVNWLLAQS-OH) displayed a solubility (pH 7.4) of no less than 15 mg/mL and a solubility (pH 7.4, aqueous buffer) of no less than 30 mg/mL. `CC[C@H](C)[C@H](NC(=O)[C@H](CO)NC(=O)[C@H](Cc1ccc(O)cc1)NC(=O)[C@H](CC(=O)O)NC(=O)[C@H](CO)NC(=O)[C@@H](NC(=O)[C@H](Cc1ccccc1)NC(=O)[C@@H](NC(=O)CNC(=O)[C@H](CCC(=O)O)NC(=O)C(C)(C)NC(=O)[C@@H](N)Cc1ccc(O)cc1)[C@@H](C)O)[C@@H](C)CC)C(=O)N[C@@H](C)C(=O)NC(C)(C)C(=O)N[C@@H](CC(=O)O)C(=O)N[C@@H](CCCCN)C(=O)N[C@@H](C)C(=O)N[C@@H](CCCCNC(=O)COCCOCCNC(=O)COCCOCCNC(=O)CC[C@H](NC(=O)CCCCCCCCCCCCCCCCC(=O)O)C(=O)O)C(=O)N[C@@H](CCC(N)=O)C(=O)N[C@@H](C)C(=O)N[C@@H](CC(=O)O)C(=O)N[C@@H](Cc1ccccc1)C(=O)N[C@H](C(=O)N[C@@H](CCC(=O)O)C(=O)N[C@@H](Cc1c[nH]c2ccccc12)C(=O)N[C@@H](CC(C)C)C(=O)N[C@@H](CC(C)C)C(=O)N[C@@H](C)C(=O)N[C@@H](CCC(N)=O)C(=O)N[C@@H](CCCNC(=N)N)C(=O)NCC(=O)O)C(C)C` [Compound 165] (H-Y[Aib]EGTFISDYSIA[Aib]DKAK([AEEA-AEEA-γGlu-C18 diacid])QADFVEWLLAQRG-OH): the solubility runs as follows: (pH 7.4) no less than 15 mg/mL; (pH 7.4, aqueous buffer) no less than 30 mg/mL.

For `CC[C@H](C)[C@H](NC(=O)[C@H](CCCNC(=N)N)NC(=O)[C@H](CC(=O)O)NC(=O)[C@H](CCCCNC(=O)CNC(=O)CNC(=O)CNC(=O)CNC(=O)CNC(=O)CCCCCCCCCCCCCCCCC(=O)O)NC(=O)[C@H](C)NC(=O)[C@@H](NC(=O)[C@H](CO)NC(=O)[C@H](Cc1ccc(O)cc1)NC(=O)[C@H](CC(=O)O)NC(=O)[C@H](CO)NC(=O)[C@@H](NC(=O)[C@H](Cc1ccccc1)NC(=O)[C@@H](NC(=O)CNC(=O)[C@H](CCC(=O)O)NC(=O)C(C)(C)NC(=O)[C@H](Cc1ccc(O)cc1)NC)[C@@H](C)O)[C@@H](C)CC)[C@@H](C)CC)C(=O)N[C@@H](C)C(=O)N[C@@H](CCC(N)=O)C(=O)N[C@@H](CCC(N)=O)C(=O)N[C@@H](CC(=O)O)C(=O)N[C@@H](Cc1ccccc1)C(=O)N[C@H](C(=O)N[C@@H](CC(N)=O)C(=O)N[C@@H](Cc1c[nH]c2ccccc12)C(=O)N[C@@H](CC(C)C)C(=O)N[C@@H](CC(C)C)C(=O)N[C@@H](C)C(=O)N[C@@H](CCC(N)=O)C(=O)N[C@@H](CCCNC(=N)N)C(=O)N1CCC[C@H]1C(=O)N[C@@H](CO)C(=O)N[C@@H](CO)C(=O)NCC(=O)O)C(C)C` [Compound 285], where the note is “pH 7.4, aqueous buffer”, the solubility is less than 6 mg/mL.

What is called solubility is how much of the substance goes into solution per volume. A high value points to much dissolved substance.

The values are drawn from US20230143604A1, “QW DOSING OF GIP RECEPTOR AGONIST PEPTIDE COMPOUNDS AND USES THEREOF” (TAKEDA PHARMACEUTICAL COMPANY LIMITED, priority 2020, published 2023).
